These results are taken from US12239729B2, “TRPV3 agonists for the treatment of skin conditions” (Soricimed Biopharma Inc., priority 2012, dated 2025).

“Also recorded” adds a separate entry of the source. Peptide text beside a SMILES is read from it.

Assay [1] has as its system HaCaT cells. The assay is described as follows: Cell death assay in HaCaT keratinocytes (Example 3). It is filed as cell-based, human. How it is done: In an initial experiment, various concentrations of SOR-C13 and SOR-C27 were tested on human keratinocytes (HaCaT cells) for their ability to cause cell death. The negative control was Phosphate Buffered Saline (PBS) and the positive control was Glycolic Acid (20 mM), a known activator of TRPV3. At the concentrations used (10, 100 and 1000 μM) only the 1000 μM concentration produced a statistically significant increase in cell death over PBS (FIG. 6). […] The two peptides appeared to be indistinguishable in their activity with respect to the number of dead cells
Both peptides were dissolved in PBS at 30 mM concentration at ambient temperature based on the peptide content with a correction factor (SOR-C13 concentration was multiplied by 1.19, while SOR-C27 concentration was multiplied by 1.29). Stock solutions were sterilized by passing through a 0.2 μm syringe filter prewashed with PBS. Stocks of peptides were kept at −20° C. during the study.
Human immortalized keratinocyte HaCaT cells (Cat. #T0020001) were from Addexbio Technologies (San Diego, California, USA). In general, HaCaT cells were cultured in 37° C. CO2 incubator in DEME with 1.0 g/L glucose (Lonza, Cat #12-707F) with 10% FBS. Glutamine (2 mM), penicillin (100 I.U.) and streptomycin (100 μg/ml) were added to the media. Cells were sub-cultured twice per week using Trypsin-0.25% EDTA to detach cells.
HaCaT cells were plated at ˜8×10^5/well in each well of the 12-well tissue culture plates in triplicates in 2 ml culture media. Twenty-four (24) hours post-plating, cells were treated with PBS, or SOR-C13 at 10, 100 and 1000 μM, or SOR-C27 at 10, 100 and 1000 μM, or glycolic acid at 20 mM.
At 72 hours post-treatment, the incubation was terminated and supernatant was collected. Attached cells were washed with 2 ml PBS, and trypsinized. Suspension of cells was combined with supernatant and spun at 1000 g for 5 minutes. The cell pellet was then resuspended in 100 μl PBS for cell counting using trypan blue exclusion.
Student's t-test was used to compare the group treated with a test article vs. the group treated with PBS. Standard errors of mean (SEM) were used to represent variation of data.

Assay [2] deals with HaCaT cells. Nature of the assay: Cell death assay in HaCaT cells with SOR-C13 fragments (Example 5). It counts as cell-based, human. To be noted: 100 and 1000 μM tested, 72 hours. The procedure: Solutions of each of the peptides listed in Table 2 were made based on formulation weight without correction of purity in PBS at a 100 mM stock concentration. Stock solutions were sterilized by passing through a 0.2 μm syringe filter prewashed with PBS. Stocks of peptides were kept in aliquots at −20° C. during the study. Glycolic acid was made in a 5M stock in PBS and filtered using a 0.2 μm syringe filter and kept at −20° C.
Human immortalized keratinocyte HaCaT cells were cultured as described in Example 3.
HaCaT cells were plated at ˜8×10^5/well in each well of the 12-well tissue culture plates in triplicates in 2 ml culture media. Twenty-four (24) hours post-plating, cells were treated with PBS, or peptide stocks at 100 and 1000 μM (in triplicates), or glycolic acid at 20 mM (single data point). The Cell Death Assay was otherwise performed as described in Example 3.

For the molecule `CC(C)C[C@H](NC(=O)[C@H](Cc1ccccc1)NC(=O)[C@H](CCC(=O)O)NC(=O)[C@@H](N)CCCCN)C(=O)N[C@@H](Cc1cnc[nH]1)C(=O)N1CCC[C@H]1C(=O)N[C@@H](CO)C(=O)N[C@@H](CCCCN)C(=O)N[C@H](C(=O)N[C@@H](CC(=O)O)C(=O)N[C@@H](CC(C)C)C(=O)N1CCC[C@H]1C(=O)N[C@@H](CCCNC(=N)N)C(=O)O)C(C)C` [SOR-C13, KEFLHPSKVDLPR] (H-KEFLHPSKVDLPR-OH), the “increase in cell death compared to PBS treatment” value with HaCaT cells [1] (1 mM, 72-hour incubation) is on record as ~2 fold. The “induction of cell death compared to PBS” value is “significantly induced cell death” in the assay on HaCaT cells [1] (1 mM, 72 hours, p<0.05) and “no significant difference in the numbers of dead cells; also recorded: did not have a significant effect” in the assay with HaCaT cells [1] (10 or 100 μM, 72 hours). For the same molecule, in the assay on HaCaT cells [1] (1 mM, 72 hours, trypan blue exclusion), the “number of dead cells” value is given as ~2.2×10^4 /well. Further, in the assay on HaCaT cells [2], the “induction of cell death (words)” value is “no significant effect to induce cell death; also recorded: no increase in cell death above the PBS treatment”.
